Data taken from patent publication US9370589B2, “Switching fluorescent nanoparticle probe and fluorescent particle imaging method using same” (SHIMADZU CORPORATION, priority 2010, dated 2016).

Key:
[1] = Fluorescence intensity before and after change in external environment (addition of plasma); conditions: for Fluorescence maximum: lactosome (PSar-PLLA) containing 20 mol % of dye (IC7-2: 15 mol %), addition of plasma, polymer 1/15 mg/mL; for Fluorescence intensity (A) / Fluorescence intensity (PBS)(B) / Ratio of fluorescence intensity (A/B): lactosome containing 20 mol % of dye (IC7-2: 15 mol %); for Fluorescence intensity (A): after addition of plasma; for Fluorescence intensity (PBS)(B): in PBS, at the plasma fluorescence maximum wavelength; for Ratio of fluorescence intensity (A/B): plasma versus PBS
Experimental: Requirements for recovery of fluorescence intensity under in vivo conditions were studied. A water dispersion of the lactosome encapsulating 20 mol % of IC7-1 in a carrier agent PSar-PLLA (1 mg/mL) and phosphate buffered saline (PBS), plasma (collected from a male ddY), 5 wt % albumin (BSA), or 5 wt % SDS were mixed 1:1 (volume ratio), respectively, and the mixture was allowed to stand at room temperature for 30 minutes under lightproof conditions, and then diluted with PBS so that the concentration of the amphiphilic polymer was 1/15 mg/mL to measure a fluorescence spectrum (FIG. 3(a)).

albumin (BSA) = albumin (BSA) (Bos taurus, UniProt P02769); assay: Fluorescence intensity before and after change in external environment (addition of 5 wt % BSA); conditions: lactosome containing 20 mol % of dye (IC7-2: 15 mol %); for Ratio of fluorescence intensity (A/B): 5 wt % BSA versus PBS; for Fluorescence maximum: addition of 5 wt % BSA, polymer 1/15 mg/mL; for Fluorescence intensity (A): after addition of 5 wt % BSA; for Fluorescence intensity (PBS)(B): in PBS, at the BSA fluorescence maximum wavelength
From the text: (§1) Requirements for recovery of fluorescence intensity under in vivo conditions were studied.
(§2) It is to be noted that specific composition of the phosphate buffered saline (PBS) is as follows: 29 g of Na2HPO4.12H2O, 2.96 g of NaH2PO4.2H2O, and 8.7 g of NaCl per 1 liter of ultrapure water.

[2] = Fluorescence intensity before and after change in external environment (addition of 5 wt % SDS); conditions: lactosome containing 20 mol % of dye (IC7-2: 15 mol %); for Ratio of fluorescence intensity (A/B): 5 wt % SDS versus PBS; for Fluorescence maximum: addition of 5 wt % SDS, polymer 1/15 mg/mL; for Fluorescence intensity (A): after addition of 5 wt % SDS; for Fluorescence intensity (PBS)(B): in PBS, at the SDS fluorescence maximum wavelength
From the text: as §1, §2

[3] = Absorption and fluorescence spectra of fluorescent dye-encapsulating lactosomes in ultrapure water; type: physicochemical; conditions: polymer 1 mg/mL; for absorption maximum / Fluorescence maximum: lactosome encapsulating 1 mol % of dye
Experimental: Among the lactosomes encapsulating the fluorescent dye IC7-1 (IC7-1/Lactosomes) obtained in Example 1-1, the freeze-dried products of the lactosomes each encapsulating 1 mol %, 5 mol %, 10 mol % and 20 mol % of the fluorescent dye were subjected to measurement of absorption spectra and fluorescence spectra in the following manner.
The measurement of absorption spectra was performed to confirm that each of these lactosomes encapsulated the fluorescent dye according to their respective fluorescent dye blend ratios. Further, the measurement of fluorescence intensity of the fluorescent dye-encapsulating lactosomes was performed. The measurement of absorption spectra was performed using an ultraviolet-visible spectrophotometer (UVmini-1240, manufactured by SHIMADZU CORPORATION). The measurement of fluorescence spectra was performed at an excitation wavelength of 785 nm in the range of 700 to 900 nm using a fluorescence spectrophotometer (RF-5300PC, manufactured by SHIMADZU CORPORATION).
Each of the fluorescent dye-encapsulating lactosomes was dispersed in ultrapure water so that the concentration of the amphiphilic polymer was 1 mg/mL to measure absorption and fluorescence spectra (FIG. 1). The lactosome encapsulating 1 mol % of IC7-1 had adsorption maximum at 831 nm and fluorescence maximum at 836 nm. Although the intensity of absorbance increased as the fluorescent dye content increased, the intensity of fluorescence was highest when the fluorescent dye content was 1 mol %, and was reduced to about 1/120 when the fluorescent dye content was 20 mol % as compared to when the fluorescent dye content was 1 mol % (FIGS. 1(a) and 1(b)). The lactosome encapsulating 1 mol % of IC7-2 had absorption maximum at 831 nm and fluorescence maximum at 833 nm. […] Also when IC7-2 was contained, quenching of fluorescence was observed. The intensity of fluorescence was reduced to about ⅛ when the IC7-2 content was 20 mol % as compared to when the IC7-2 content was 1 mol % (FIGS. 1(c) and 1(d)).
Among the lactosomes encapsulating the fluorescent dye IC7-1 (IC7-1/Lactosomes) obtained in Example 1-1, the lactosomes each encapsulating 0.5 mol % (for comparison), 1 mol %, 2 mol %, 4 mol %, 8 mol %. 12 mol %, 16 mol %, or 20 mol % of the fluorescent dye IC7-1 (IC7-1/Lactosomes) were dispersed in ultrapure water so that the concentration of the amphiphilic polymer was 1 mg/mL to measure the maximum value of fluorescence at an excitation wavelength of 785 nm (FIG. 2(a)).

[4] = Dependence of fluorescence intensity of fluorescent dye-encapsulating lactosome on fluorescent dye content; type: physicochemical; conditions: for intensity of fluorescence by adding SDS, BSA, or plasma: lactosome with varied dye content; for fluorescent dye content at which the intensity of fluorescence in PBS was maximized: polymer 1/15 mg/mL
Experimental: Lactosomes encapsulating, as a fluorescent dye, IC7-1, IC7-2, IR820, IR783, or IR806 were prepared by changing the fluorescent dye content (1 mg/mL), and were then mixed with PBS, 5 wt % SDS, 5 wt % BSA, or plasma 1:1 (volume ratio), and the mixture was allowed to stand at room temperature for 30 minutes under lightproof conditions, and then diluted with PBS so that the concentration of the amphiphilic polymer was 1/15 mg/mL to measure the intensity of fluorescence using Fluorolog-3 (HORIBA Jobin Yvon Inc.) (FIG. 6).

Chain of albumin (BSA) (P02769 25-607): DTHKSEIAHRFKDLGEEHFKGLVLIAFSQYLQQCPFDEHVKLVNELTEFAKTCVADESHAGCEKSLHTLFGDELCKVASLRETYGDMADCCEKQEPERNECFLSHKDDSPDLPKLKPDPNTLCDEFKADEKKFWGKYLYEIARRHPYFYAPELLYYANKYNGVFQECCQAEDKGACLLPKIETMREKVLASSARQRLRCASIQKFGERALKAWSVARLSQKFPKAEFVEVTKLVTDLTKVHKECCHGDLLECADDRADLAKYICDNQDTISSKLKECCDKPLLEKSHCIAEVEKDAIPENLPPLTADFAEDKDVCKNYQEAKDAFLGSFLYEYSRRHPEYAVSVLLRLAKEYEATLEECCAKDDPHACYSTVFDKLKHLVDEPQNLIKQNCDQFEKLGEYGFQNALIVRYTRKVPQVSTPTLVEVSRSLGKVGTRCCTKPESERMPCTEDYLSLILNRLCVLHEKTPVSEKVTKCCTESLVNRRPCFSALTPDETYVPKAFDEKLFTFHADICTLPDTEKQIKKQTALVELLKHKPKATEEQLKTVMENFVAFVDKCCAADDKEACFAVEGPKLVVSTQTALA

SMILES | Fluorescence maximum [1] [nm] | Fluorescence intensity (A) [1] | Fluorescence intensity (PBS)(B) [1] | Ratio of fluorescence intensity (A/B) [1] | Ratio of fluorescence intensity (A/B) (albumin (BSA)) | Fluorescence maximum (albumin (BSA)) [nm] | Fluorescence intensity (A) (albumin (BSA)) | Fluorescence intensity (PBS)(B) (albumin (BSA)) | Ratio of fluorescence intensity (A/B) [2] | Fluorescence maximum [2] [nm] | Fluorescence intensity (A) [2] | Fluorescence intensity (PBS)(B) [2] | absorption maximum [3] [nm] | Fluorescence maximum ([3]; excitation 785 nm) [nm] | intensity of fluorescence at 20 mol % dye content as compared to 1 mol % (reduced to) ([3]; lactosome) | intensity of fluorescence by adding SDS, BSA, or plasma [4] | fluorescent dye content at which the intensity of fluorescence in PBS was maximized ([4]; lactosome) [mol %] | fluorescent dye content at which the intensity of fluorescence was highest ([3]; lactosome, excitation 785 nm) [mol %] | increase of fluorescent dye content by which fluorescence intensity per 1 μM dye is reduced to ½ ([3]; lactosome, until content reached 8 mol %) [mol %] | increase of encapsulated fluorescent dye amount by which fluorescence intensity per certain amount of dye is reduced to ½ ([4]; lactosome, amphiphilic polymer concentration 1/15 mg/mL) [mol %]
N#CC1=c2cc3c4c(c2Oc2c1cc1c5c2CCCN5CCC1)CCC[N+]=4CCC3 [Rhodamine 800] | 699 | 138170 | 82260 | 1.7 | 1.7 | 699 | 139250 | 82260 | 1.9 | 702 | 152580 | 80647 |  |  |  |  |  |  |  | 
CC1(C)C(/C=C/C=C/C=C/C=C2\N(CCCCS(=O)(=O)O)c3ccc4ccccc4c3C2(C)C)=[N+](CCCCS(=O)(=O)[O-])c2ccc3ccccc3c21 [ICG, indocyanine green] | 824 | 342590 | 5212 | 65.7 | 33.4 | 802 | 148650 | 4454 | 71.9 | 821 | 382900 | 5327 |  |  |  |  |  |  |  | 
O=C(O)c1ccccc1C1=c2cc3c4c(c2Oc2c1cc1c5c2CCCN5CCC1)CCC[N+]=4CCC3 [Rhodamine 101] | 601 | 154280 | 163410 | 0.9 | 1.1 | 600 | 171710 | 163500 | 1.5 | 598 | 249130 | 162110 |  |  |  |  |  |  |  | 
CC1(C)C(/C=C/C2=C(Cl)C(=C/C=C3/C=CN(CCO)c4ccccc43)/CCC2)=[N+](CCCCCC(=O)O)c2ccc3ccccc3c21.[I-] [IC7-2] | 901 | 241880 | 14224 | 17.0 | 13.1 | 903 | 185345 | 14147 | 7.9 | 916 | 124942 | 15816 | 831 | 833 | about ⅛ | increased with dependence on fluorescent dye content | 2.5 |  |  | 
CC1(C)C(/C=C/C2=C(Cl)C(=C/C=C3\N(CCCCCC(=O)O)c4ccc5ccccc5c4C3(C)C)/CCC2)=[N+](CCO)c2ccc3ccccc3c21.[I-] [IC7-1] | 844 | 199746 | 696 | 287.0 | 156.3 | 837 | 92384 | 591 | 204.5 | 852 | 141929 | 694 | 831 | 836 | about 1/120 | increased with dependence on fluorescent dye content | 1 | 1 | 0.78 | 1.12
